Marks after values point to notes of the source that are not given here.
What was measured:
[1] = test system: Human Keratinocytes (HaCaT); assay: Cell cycle assay (Sub-G0/G1); assay type: cell-based; conditions: 48 h
Experimental: Cell lines: Human Keratinocytes (HaCaT); test Item: IS181; treatment regimen: treated twice (once after 24 hours)-48 hours; concentration range: 100 6 g/ml-5000 6 g/ml. […] Cells were treated with IS181 for 24 hours. After 24 h, cells were again treated with IS181 for 24 hours. After 48 h of first treatment, cells were harvested and fixed in ethanol overnight. Cells were washed and stained with Cell cycle reagent and acquired on flow cytometer. […] Positive control: Curcumin.

[2] = target: EGFR (ErbB1) (Homo sapiens, UniProt P00533); assay: Biochemical kinase assay EGFR
Experimental: Test system: cell free assays; test items: IS181; concentrations tested: 1 ng/ml-5000 μg/ml; Kinases: a) Cell free assays: EGFR (ErbB1); FLT1 (VEGFR1); JAK1; JAK3 MAP2K1 (MEK1); PDGFRA (PDGFR alpha); PRKCA (PKC alpha); b) cell based assay: JAK-STAT.

[3] = test system: IL-6; assay: LPS stimulated IL-6 secretion in RAW264.7; assay type: cell-based, Mouse; conditions: for IL-6 % decrease with respect to LPS / IL-6 Conc (pg/ml): RAW264.7 + LPS, 24 h
Experimental: Effect on pro-inflammatory cytokines against LPS stimulation: TNF-α; IL-6; IL-1-β: Cell lines: Murine macrophage cell line (RAW264.7); test item: IS181; experimental steps: pretreatment of cells with TI for 2 hours; stimulation with LPS (100 ng/ml) for 24 hours; supernatant collection for cytokine analysis; concentration range: o.1 μg/ml-500 μg/ml (duplicate wells); Cytokines: TNF-α; IL-6; IL-1-β; Method of estimating cytokines: ELISA; positive control: dexamethasone.
Cell line: RAW264.7 (Mouse macrophages); TI treatment regimen: Pretreatment for 2 h; TI Concentration range: 0.1 μg/ml-500 μg/ml (duplicate wells); LPS stimulation: 100 ng/ml; Time point for supernatants collection: 24 h; Method of estimation: ELISA; Positive control: Dexamethasone

[4] = test system: Human endothelial cells (EA.hy 926); assay: DNA fragmentation in endothelial cells; assay type: cell-based; conditions: for % induction of DNA fragmentation: EA.hy926, 48 h
Experimental: Cell lines: Human endothelial cells (EA.Hy 926); test item: IS 181; treatment regimen: multiple additions (2)—48 hours; concentration range: 100 μg/ml to 5000 μg/ml (Duplicate wells); sera condition: medium containing 1% FBS. […] Cells were lysed and fragmented DNA was precipitated using PEG/NaCl solution. The fragmented DNA was incubated with 0.2 μg/ml of Hoechst 33258 dye and fluorescence was read at 360 ex/460 em. End point: Percentage induction of DNA fragmentation with respect to untreated. Positive control: anthralin. IS 181 led to induction of DNA fragmentation in Ea.hy.926 cells at all the concentrations tested. […] The overall effect of IS 181 on induction of DNA fragmentation with respect to untreated in Ea.hy.926 cells ranged from 15.09% to 64.15% (FIGS. 10A-10B and Table-10).

[5] = test system: Human Keratinocytes (HaCaT); assay: Annexin-V assay; assay type: cell-based; conditions: 48 h
Experimental: Cell lines: Human Keratinocytes (HaCaT); test Item (TI): IS181; Treatment regimen: treated twice (once after 24 hours)-48 hours; concentration range: 100 6 g/ml-5000 6 g/ml. […] (c) cells were treated with IS181 for 24 hours; (d) after 24 hours, cells were again treated with IS181 for 24 hours; (e) after 48 hours of first treatment, cells were stained with Annexin-V reagent and acquired on flow cytometer; (f) fold increase in apoptotic cells (early and late apoptotic) and necrotic cells was calculated with respect to untreated control cells. Positive control: Curcumin. […] (FIG. 4)

[6] = test system: Human Keratinocytes (HaCaT); assay: DNA fragmentation assay in HaCaT; assay type: cell-based; conditions: 48 h
Experimental: Cells were lysed and fragmented DNA was precipitated using PEG/NaCl solution. The fragmented DNA was incubated with 0.2 μg/ml of Hoechst 33258 dye and fluorescence was read at 360 ex/460 em. End point: Percentage induction of DNA fragmentation with respect to untreated Positive control. Anthralin. IS 181 led to induction of DNA fragmentation in HaCaT cells at all the concentrations tested except at 100 μg/ml. […] The overall effect of IS 181 on induction of DNA fragmentation with respect to untreated in HaCaT cells ranged from −18.8% to 83.3%. (FIG. 8 and Table-6).

[7] = test system: Caspase-3 enzyme; assay: Caspase-3 assay; assay type: cell-based, Human; conditions: HaCaT, 48 h
Experimental: Cell lines: Human Keratinocytes (HaCaT); Test Item (TI): IS 181; Treatment regimen: Multiple additions (2)—48 hours; Concentration range: 100 μg/ml to 5000 μg/ml (Duplicate wells); Sera Condition: Medium containing 1% FBS. […] Cells were lysed and protein was estimated. The above lysates were processed further for Caspase-3 enzyme activity assay using colorimetric based method. Percentage induction of Caspase-3 enzyme activation with respect to untreated; Positive control: Anthralin. IS 181 led to induction of Caspase-3 enzyme activation in HaCaT cells at all the concentrations tested except at 100 μg/ml. […] (FIGS. 7A-7B)

EGFR (ErbB1), sequence (P00533 25-1210): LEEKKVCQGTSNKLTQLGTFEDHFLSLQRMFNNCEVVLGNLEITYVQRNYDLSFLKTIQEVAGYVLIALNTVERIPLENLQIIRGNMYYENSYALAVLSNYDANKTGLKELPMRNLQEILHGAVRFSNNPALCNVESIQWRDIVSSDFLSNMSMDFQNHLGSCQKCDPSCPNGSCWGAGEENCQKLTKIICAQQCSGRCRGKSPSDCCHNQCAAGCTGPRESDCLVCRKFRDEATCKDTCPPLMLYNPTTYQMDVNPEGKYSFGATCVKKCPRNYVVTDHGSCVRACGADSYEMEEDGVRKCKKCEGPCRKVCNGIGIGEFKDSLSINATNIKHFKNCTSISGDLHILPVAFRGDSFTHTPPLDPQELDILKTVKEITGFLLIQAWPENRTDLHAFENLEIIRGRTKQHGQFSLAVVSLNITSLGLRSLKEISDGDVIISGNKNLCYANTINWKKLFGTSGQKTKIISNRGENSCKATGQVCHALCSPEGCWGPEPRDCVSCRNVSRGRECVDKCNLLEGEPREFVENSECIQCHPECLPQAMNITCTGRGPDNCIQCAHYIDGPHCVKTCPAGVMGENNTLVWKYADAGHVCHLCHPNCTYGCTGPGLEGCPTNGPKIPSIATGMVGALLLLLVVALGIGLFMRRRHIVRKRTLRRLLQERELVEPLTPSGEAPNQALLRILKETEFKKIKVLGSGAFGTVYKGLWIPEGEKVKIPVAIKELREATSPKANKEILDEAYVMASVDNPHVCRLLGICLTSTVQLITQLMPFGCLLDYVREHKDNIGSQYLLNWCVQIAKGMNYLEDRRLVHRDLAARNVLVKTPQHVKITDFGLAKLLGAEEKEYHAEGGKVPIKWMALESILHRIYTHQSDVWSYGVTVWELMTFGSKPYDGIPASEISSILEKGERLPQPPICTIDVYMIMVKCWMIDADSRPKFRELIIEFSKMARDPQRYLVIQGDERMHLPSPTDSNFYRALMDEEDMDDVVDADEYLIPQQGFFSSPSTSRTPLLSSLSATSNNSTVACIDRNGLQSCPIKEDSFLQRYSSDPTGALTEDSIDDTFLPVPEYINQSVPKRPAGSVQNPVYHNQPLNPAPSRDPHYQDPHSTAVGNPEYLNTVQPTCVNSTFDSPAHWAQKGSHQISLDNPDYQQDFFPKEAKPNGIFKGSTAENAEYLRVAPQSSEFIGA

Question: “H-WVQRVVEKFLK-OH [IS181, H-Trp-Val-Gln-Arg-Val-Val-Glu-Lys-Phe-Leu-Lys-OH]” was tested. Which “increase in pro-apoptotic cells (Sub-G0/G1 population) vs untreated” value (“increase in pro-apoptotic cells” below) ([1]; 100 μg/ml) did it give?
Answer: 9.1 fold

Question: What about the “increase in pro-apoptotic cells” value ([1]; 500 μg/ml) of the same substance?
Answer: 7.1 fold

Question: And the “increase in pro-apoptotic cells” value ([1]; 1000 μg/ml)?
Answer: 2.3 fold

Question: What about the “increase in pro-apoptotic cells” value ([1]; 5000 μg/ml) of the same substance?
Answer: 29.7 fold

Question: And the inhibition at 10 µg/mL ([2]; 10 μg/ml)?
Answer: 43%

Question: What about the inhibition at 50 µg/mL ([2]; cell free, 50 μg/ml) of the same substance?
Answer: 43%

Question: What about the inhibition at 100 µg/mL ([2]; cell free, 100 μg/ml) of the same substance?
Answer: -12%

Question: And the inhibition at 250 µg/mL ([2]; cell free, 250 μg/ml)?
Answer: -29%

Question: What about the inhibition at 500 µg/mL ([2]; cell free, 500 μg/ml) of the same substance?
Answer: -56%

Question: And the inhibition at 1000 µg/mL ([2]; cell free, 1000 μg/ml)?
Answer: -87%

Question: And the inhibition at 2000 µg/mL ([2]; cell free, 2000 μg/ml)?
Answer: -155%

Question: And the “IL-6 inhibition as compared to LPS stimulated levels” value ([3]; RAW264.7)?
Answer: good extent of TNF-α and IL-6 inhibition

Question: And the “IL-6 % decrease with respect to LPS” value ([3]; 0.1 μ/ml)?
Answer: 57.2%

Question: What about the “IL-6 Conc (pg/ml)” value ([3]; 0.1 μ/ml) of the same substance?
Answer: 908.7*** pg/ml

Question: What about the “IL-6 % decrease with respect to LPS” value ([3]; 1 μ/ml) of the same substance?
Answer: 41.2%

Question: And the “IL-6 Conc (pg/ml)” value ([3]; 1 μ/ml)?
Answer: 1248.3*** pg/ml

Question: What about the “IL-6 % decrease with respect to LPS” value ([3]; 5 μ/ml) of the same substance?
Answer: 26.3%

Question: What about the “IL-6 Conc (pg/ml)” value ([3]; 5 μ/ml) of the same substance?
Answer: 1565.9*** pg/ml

Question: What about the “IL-6 % decrease with respect to LPS” value ([3]; 10 μ/ml) of the same substance?
Answer: 76.4%

Question: What about the “IL-6 Conc (pg/ml)” value ([3]; 10 μ/ml) of the same substance?
Answer: 501.5*** pg/ml

Question: What about the “IL-6 % decrease with respect to LPS” value ([3]; 100 μ/ml) of the same substance?
Answer: 35.4%

Question: What about the “IL-6 Conc (pg/ml)” value ([3]; 100 μ/ml) of the same substance?
Answer: 1371.8*** pg/ml

Question: What about the “IL-6 % decrease with respect to LPS” value ([3]; 500 μ/ml) of the same substance?
Answer: 68.5%

Question: And the “IL-6 Conc (pg/ml)” value ([3]; 500 μ/ml)?
Answer: 669.1*** pg/ml

Question: What about the “inhibition of IL-6 secretion as compared to LPS treated cells” value ([3]; RAW264.7, 0.1 μg/ml-500 μg/ml) of the same substance?
Answer: 26.3%-76.4%

Question: And the “% induction of DNA fragmentation” value ([4]; 100 μg/ml)?
Answer: 15.09%

Question: What about the “% induction of DNA fragmentation” value ([4]; 500 μg/ml) of the same substance?
Answer: 22.64%

Question: And the “% induction of DNA fragmentation” value ([4]; 1000 μg/ml)?
Answer: 64.15%

Question: What about the “% induction of DNA fragmentation” value ([4]; 2000 μg/ml) of the same substance?
Answer: 56.60%

Question: What about the “% induction of DNA fragmentation” value ([4]; 5000 μg/ml) of the same substance?
Answer: 22.64%

Question: And the “overall effect on induction of DNA fragmentation with respect to untreated” value ([4]; Ea.hy.926, 48 h, 100 μg/ml to 5000 μg/ml)?
Answer: 15.09% to 64.15%

Question: What about the “increase in late apoptotic cells vs untreated” value ([5]; 2000 μg/ml) of the same substance?
Answer: 2.1 fold

Question: What about the “increase in necrotic cells vs untreated” value ([5]; 2000 μg/ml) of the same substance?
Answer: 7.9 fold

Question: And the “increase in early apoptotic cells vs untreated” value ([5]; 5000 μg/ml)?
Answer: 2.3 fold

Question: And the “increase in late apoptotic cells vs untreated” value ([5]; 5000 μg/ml)?
Answer: 5.3 fold

Question: What about the “increase in necrotic cells vs untreated” value ([5]; 5000 μg/ml) of the same substance?
Answer: 4.5 fold

Question: What about the “% induction of DNA fragmentation” value ([6]; 100 μg/ml) of the same substance?
Answer: −18.8%

Question: And the “overall effect on induction of DNA fragmentation with respect to untreated” value ([6]; 100 μg/ml to 5000 μg/ml)?
Answer: −18.8% to 83.3%

Question: And the “% induction of DNA fragmentation” value ([6]; 500 μg/ml)?
Answer: 35.4%

Question: And the “% induction of DNA fragmentation” value ([6]; 1000 μg/ml)?
Answer: 35.4%

Question: And the “% induction of DNA fragmentation” value ([6]; 2000 μg/ml)?
Answer: 27.1%

Question: And the “% induction of DNA fragmentation” value ([6]; 5000 μg/ml)?
Answer: 83.3%

Question: What about the “Percentage induction of caspase-3 enzyme activation with respect to untreated” value (from here on “Percentage induction”) ([7]; 100 μg/ml) of the same substance?
Answer: −20.37

Question: And the “Percentage induction” value ([7]; 500 μg/ml)?
Answer: 7.41

Question: And the “Percentage induction” value ([7]; 1000 μg/ml)?
Answer: 29.63

Question: And the “Percentage induction” value ([7]; 2000 μg/ml)?
Answer: 50

Reference: US10538561B2, “Peptide for treating inflammatory diseases” (priority 2015, dated 2020)
